Source: PubChem BioAssay (NCI)
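Step 1: Grow cells in 96-well plates. Step 2: Expose to compound for 48 hours at 5 concentrations. Step 3: Interpolate endpoints linearly; if unreached, use highest concentration. At the TGI there is no net growth.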

Tests used:
Test in all cases: NCI tumour cell line growth inhibition, 48 h
[1] = system: BT-549 breast
[2] = system: HS 578T breast
[3] = system: MDA-MB-435
[4] = system: DMS 114 small cell lung
[5] = system: HOP-18 NSCLC
[6] = system: P388 leukemia
[7] = system: P388/ADR leukemia
[8] = system: SN12K1 renal
[9] = system: SNB-78 CNS
[10] = system: LXFL 529 NSCLC

Measured: TGI

O/N=C\c1cc(O)c(O)c(/C=N/O)c1
> 100 µM: [1] | [2] | [3]

CN1OC(=O)N(C)C1c1ccccc1 (stereo not given)
> 100 µM: [4] | [5] | [6] | [7] | [8] | [9]

CNC(=O)CN1CC(=O)N(C)C(=O)C1
> 100 µM: [10] | [9]

COc1ccc2c(c1)c1cc(OC)ccc1n2CCCCOc1ccc(-c2c3ccccc3c(-c3ccc(OCCCCn4c5ccc(OC)cc5c5cc(OC)ccc54)cc3)c3ccccc23)cc1
> 100 µM: [4]

COc1cc2c(cc1OC)CCN=C2
> 100 µM: [1] | [2] | [3]
